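Here, GI50 denotes the concentration required for 50% inhibition of growth. The concentration for full growth arrest is given as TGI.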
How the values were obtained:
Experiment in all cases: NCI-60 cell line screen, 384-well format
[1] = system: SK-OV-3 ovarian
[2] = system: UO-31 renal
[3] = system: SW-620 colon
[4] = system: A549 NSCLC
[5] = system: HL-60(TB) leukemia
[6] = system: HS 578T breast
[7] = system: OVCAR-8 ovarian
[8] = system: SF-539 CNS
[9] = system: HOP-92 NSCLC
[10] = system: SN12C renal
[11] = system: TK-10 renal
[12] = system: SK-MEL-2 melanoma
[13] = system: M14 melanoma
[14] = system: KM12 colon
[15] = system: SK-MEL-28 melanoma
[16] = system: MALME-3M melanoma
[17] = system: HCT-15 colon
[18] = system: SF-268 CNS
[19] = system: NCI-H522 lung
[20] = system: HCT-116 colon
[21] = system: K-562 leukemia
[22] = system: NCI-H322M lung
[23] = system: UACC-62 melanoma
[24] = system: SK-MEL-5 melanoma
[25] = system: OVCAR-5 ovarian
[26] = system: SR leukemia
[27] = system: NCI-H23 lung
[28] = system: SF-295 CNS
[29] = system: MDA-MB-231 breast
[30] = system: SNB-75 CNS
[31] = system: T-47D breast
[32] = system: CAKI-1 renal
[33] = system: OVCAR-3 ovarian
[34] = system: A498 renal
[35] = system: NCI-H460 NSCLC
[36] = system: RXF 393 renal
[37] = system: ACHN renal
[38] = system: DU-145 prostate
[39] = system: OVCAR-4 ovarian
[40] = system: MDA-MB-468 breast
[41] = system: IGROV1 ovarian
[42] = system: EKVX NSCLC
[43] = system: MDA-MB-435 melanoma
[44] = system: COLO 205 colon
[45] = system: SNB-19 CNS
[46] = system: HT29 colon
[47] = system: NCI-H226 lung
[48] = system: HOP-62 NSCLC
[49] = system: 786-0 renal
[50] = system: PC-3 prostate
[51] = system: UACC-257 melanoma
[52] = system: MCF7 breast
[53] = system: BT-549 breast
[54] = system: MOLT-4 leukemia

Compound: CN(C)C1CCN(C(=O)c2ccc(NC(=O)Nc3ccc(-c4nc(N5CCOCC5)nc(N5CCOCC5)n4)cc3)cc2)CC1
- GI50 [1]: < 10 nM
- TGI [1]: 39.8 nM
- GI50 [2]: 2220 nM
- TGI [2]: 7290 nM
- GI50 [3]: 75.2 nM
- TGI [3]: 10200 nM
- GI50 [4]: 22.3 nM
- TGI [4]: 546 nM
- GI50 [5]: 55.4 nM
- TGI [5]: 227 nM
- GI50 [6]: < 10 nM
- TGI [6]: 45.5 nM
- GI50 [7]: 139 nM
- TGI [7]: 2940 nM
- GI50 [8]: < 10 nM
- TGI [8]: 113 nM
- GI50 [9]: 21.1 nM
- TGI [9]: 118 nM
- GI50 [10]: 30.3 nM
- TGI [10]: 12400 nM
- GI50 [11]: 348 nM
- TGI [11]: 1690 nM
- GI50 [12]: 37.3 nM
- TGI [12]: 268 nM
- GI50 [13]: 128 nM
- TGI [13]: 5250 nM
- GI50 [14]: 27.7 nM
- TGI [14]: 10300 nM
- GI50 [15]: 42.8 nM
- TGI [15]: 1150 nM
- GI50 [16]: 18.9 nM
- TGI [16]: 73.5 nM
- GI50 [17]: 3260 nM
- TGI [17]: > 100000 nM
- GI50 [18]: 36.3 nM
- TGI [18]: 1760 nM
- GI50 [19]: 24.4 nM
- TGI [19]: 1610 nM
- GI50 [20]: 31.9 nM
- TGI [20]: 1970 nM
- GI50 [21]: 42.2 nM
- TGI [21]: 1820 nM
- GI50 [22]: 19.5 nM
- TGI [22]: 149 nM
- GI50 [23]: 24.9 nM
- TGI [23]: 142 nM
- GI50 [24]: 125 nM
- TGI [24]: 390 nM
- GI50 [25]: 50.9 nM
- TGI [25]: 12100 nM
- GI50 [26]: < 10 nM
- TGI [26]: 26.4 nM
- GI50 [27]: 50.8 nM
- TGI [27]: 1120 nM
- GI50 [28]: 174 nM
- TGI [28]: 607 nM
- GI50 [29]: 11.7 nM
- TGI [29]: 15000 nM
- GI50 [30]: < 10 nM
- TGI [30]: 33.9 nM
- GI50 [31]: < 10 nM
- TGI [31]: 11.4 nM
- GI50 [32]: 278 nM
- TGI [32]: 1230 nM
- GI50 [33]: 12.1 nM
- TGI [33]: 323 nM
- GI50 [34]: 188 nM
- TGI [34]: 943 nM
- GI50 [35]: 18.6 nM
- TGI [35]: 1340 nM
- GI50 [36]: 25.2 nM
- TGI [36]: 203 nM
- GI50 [37]: 479 nM
- TGI [37]: 5560 nM
- GI50 [38]: 15 nM
- TGI [38]: 1580 nM
- GI50 [39]: < 10 nM
- TGI [39]: 50.9 nM
- GI50 [40]: < 10 nM
- TGI [40]: 22.4 nM
- GI50 [41]: < 10 nM
- TGI [41]: 43.1 nM
- GI50 [42]: 40.6 nM
- TGI [42]: 828 nM
- GI50 [43]: 23.5 nM
- TGI [43]: 352 nM
- GI50 [44]: 26.7 nM
- TGI [44]: 137 nM
- GI50 [45]: 383 nM
- TGI [45]: 14400 nM
- GI50 [46]: 28.6 nM
- TGI [46]: 1470 nM
- GI50 [47]: 86.5 nM
- TGI [47]: 441 nM
- GI50 [48]: 52.1 nM
- TGI [48]: 351 nM
- GI50 [49]: 290 nM
- TGI [49]: 2030 nM
- GI50 [50]: 18.8 nM
- TGI [50]: 765 nM
- GI50 [51]: 51.9 nM
- TGI [51]: 338 nM
- GI50 [52]: < 10 nM
- TGI [52]: 176 nM
- GI50 [53]: 17.6 nM
- TGI [53]: 130 nM
- GI50 [54]: 10.7 nM
- TGI [54]: 45.4 nM

Source: PubChem BioAssay (NCI)
